Laboratory results: ChEMBL document CHEMBL5620412, “Discovery of benzofuran-2-carboxylic acid derivatives as lymphoid tyrosine phosphatase (LYP) inhibitors for cancer immunotherapy” (Eur J Med Chem, 2023)
Calls of active or inactive are those of the source. The calls are words filed in the database; no cut-off is given here.

How the values were obtained:
[1] = molecular target: T1, Tyrosine-protein phosphatase non-receptor type 5 (Homo sapiens, UniProt P54829); assay: Inhibition of N-terminal His-tagged PTPN5 catalytic domain (1 to 294 residues) (unknown origin) expressed in Escherichia coli BL21 (DE3) cells
T1 sequence (P54829 whole entry): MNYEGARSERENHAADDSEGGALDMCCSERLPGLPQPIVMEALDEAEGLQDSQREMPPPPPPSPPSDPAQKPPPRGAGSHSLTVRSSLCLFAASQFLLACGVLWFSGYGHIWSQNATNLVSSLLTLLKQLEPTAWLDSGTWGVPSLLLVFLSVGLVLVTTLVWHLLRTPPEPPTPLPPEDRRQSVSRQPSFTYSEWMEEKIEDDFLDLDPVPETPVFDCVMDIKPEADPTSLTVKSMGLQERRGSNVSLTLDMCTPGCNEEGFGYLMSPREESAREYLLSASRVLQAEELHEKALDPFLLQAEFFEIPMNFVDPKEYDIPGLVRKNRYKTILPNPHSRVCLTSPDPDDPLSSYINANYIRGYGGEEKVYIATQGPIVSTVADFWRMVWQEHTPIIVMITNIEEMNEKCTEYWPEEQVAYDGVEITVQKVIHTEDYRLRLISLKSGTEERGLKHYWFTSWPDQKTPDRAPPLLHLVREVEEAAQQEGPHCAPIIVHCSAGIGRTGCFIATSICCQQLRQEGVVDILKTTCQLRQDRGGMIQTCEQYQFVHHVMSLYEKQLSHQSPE

MC-38 [2] = assay: Antitumor immunity against mouse MC-38 cells implanted in syngenic C57BL/6J mouse model assessed as upregulation of PD1 expression in CD4+ T cells at 50 mg/kg, IG administered twice daily for 14 days by flow cytometric analysis; format: functional, organism-based; settings: time 14.0 day
MC-38 [3] = assay: Antitumor immunity against mouse MC-38 cells implanted in syngenic C57BL/6J mouse model assessed as increase in Ki67 positive CD4+ T cells at 50 mg/kg, IG administered twice daily for 14 days by Ki67 staining based flow cytometric analysis; format: functional, organism-based; settings: time 14.0 day
MC-38 [4] = assay: Antitumor activity against mouse MC-38 cells implanted in syngenic C57BL/6J mouse model assessed as tumor growth inhibition at 50 mg/kg, IG administered twice daily for 14 days in presence of anti-PD-L1 antibody relative to control; format: functional; settings: MC-38, po, 336 h, time 14 day, read-out: TGI
MC-38 [5] = assay: Antitumor immunity against mouse MC-38 cells implanted in syngenic C57BL/6J mouse model assessed as increase in IFN-gamma expression at 50 mg/kg, IG administered twice daily for 14 days; format: functional, organism-based; settings: time 14.0 day
MC-38 [6] = assay: Antitumor activity against mouse MC-38 cells implanted in syngenic C57BL/6J mouse model assessed as tumor growth inhibition at 50 mg/kg, IG administered twice daily for 14 days relative to control; format: functional; settings: MC-38, po, 336 h, time 14 day, read-out: TGI
Jurkat T [7] = assay: Activation of TCR signaling in […] transfected human Jurkat T cells assessed as increase in ERK phosphorylation preincubated with compound for 1 hrs followed by anti-CD3 stimulation and measured after 45 mins by immunoblot analysis; format: cell-based; settings: time 105.0 min
MC-38 [8] = assay: Antitumor immunity against mouse MC-38 cells implanted in syngenic C57BL/6J mouse model assessed as increase in CD4+ T cell proportion in tumor at 50 mg/kg, IG administered twice daily for 14 days by flow cytometric analysis; format: functional, organism-based; settings: time 14.0 day
[9] = molecular target: T2, Tyrosine-protein phosphatase non-receptor type 22 (Homo sapiens, UniProt Q9Y2R2); assay: Competitive inhibition of N-terminal His-tagged LYP catalytic domain (1 to 294 residues) (unknown origin) expressed in Escherichia coli BL21 (DE3) cells using pNPP as substrate assessed as inhibition constant by Lineweaver-Burk plot analysis
T2 sequence (Q9Y2R2 whole entry): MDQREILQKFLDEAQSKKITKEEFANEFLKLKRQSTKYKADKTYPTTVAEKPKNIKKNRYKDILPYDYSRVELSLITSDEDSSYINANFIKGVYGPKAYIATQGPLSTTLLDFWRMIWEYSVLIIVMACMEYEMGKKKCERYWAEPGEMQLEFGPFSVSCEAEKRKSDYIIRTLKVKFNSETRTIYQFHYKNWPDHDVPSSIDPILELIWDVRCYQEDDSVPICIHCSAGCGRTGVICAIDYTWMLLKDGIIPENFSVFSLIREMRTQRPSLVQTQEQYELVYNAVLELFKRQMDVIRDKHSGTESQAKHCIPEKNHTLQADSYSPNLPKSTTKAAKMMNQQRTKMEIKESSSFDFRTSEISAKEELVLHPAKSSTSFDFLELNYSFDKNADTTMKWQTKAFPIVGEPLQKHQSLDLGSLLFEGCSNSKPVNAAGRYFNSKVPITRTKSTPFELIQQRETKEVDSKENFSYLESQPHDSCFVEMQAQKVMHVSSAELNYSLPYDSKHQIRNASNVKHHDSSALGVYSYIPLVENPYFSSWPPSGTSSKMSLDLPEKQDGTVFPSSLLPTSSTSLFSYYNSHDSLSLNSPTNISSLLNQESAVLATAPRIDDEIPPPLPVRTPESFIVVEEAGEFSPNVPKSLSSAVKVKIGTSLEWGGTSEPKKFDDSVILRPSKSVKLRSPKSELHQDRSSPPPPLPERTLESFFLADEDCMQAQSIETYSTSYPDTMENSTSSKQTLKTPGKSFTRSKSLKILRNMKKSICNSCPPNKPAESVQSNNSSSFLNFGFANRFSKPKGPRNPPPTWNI

MC-38 [10] = assay: Antiproliferative activity against mouse MC-38 cells assessed as reduction in cell viability upto 4 uM incubated for 72 hrs by CCK8 assay; format: functional, cell-based
MC-38 [11] = assay: Antitumor immunity against mouse MC-38 cells implanted in syngenic C57BL/6J mouse model assessed as increase in NKT cell proportion at 50 mg/kg, IG administered twice daily for 14 days; format: functional, organism-based; settings: time 14.0 day
Jurkat T [12] = assay: Activation of TCR signaling in […] transfected human Jurkat T cells assessed as increase in LCK phosphorylation preincubated with compound for 1 hrs followed by anti-CD3 stimulation and measured after 45 mins by immunoblot analysis; format: cell-based; settings: time 105.0 min
MC-38 [13] = assay: Antitumor immunity against mouse MC-38 cells implanted in syngenic C57BL/6J mouse model assessed as increase in M1 tumor associated macrophage proportion in tumor at 50 mg/kg, IG administered twice daily for 14 days by flow cytometric analysis; format: functional, organism-based; settings: time 14.0 day
[14] = (§1) Selectivity ratio of IC50 for inhibition of N-terminal His-tagged SSH2 catalytic domain (1 to 294 residues) (unknown origin) expressed in Escherichia coli BL21 (DE3) cells to IC50 for inhibition of N-terminal His-tagged LYP catalytic domain (1 to 294 residues) (unknown origin) expressed in Escherichia coli BL21 (DE3) cells using pNPP as substrate
[15] = as §1, with “PTPN5” for “SSH2”
[16] = molecular target: T2, Tyrosine-protein phosphatase non-receptor type 22; assay: Inhibition of N-terminal His-tagged LYP catalytic domain (1 to 294 residues) (unknown origin) expressed in Escherichia coli BL21 (DE3) cells using pNPP as substrate by absorbance based plate reader analysis
[17] = as §1, with “PTPN12” for “SSH2”

SMILES: COc1ccc(-c2ccc(CN(c3ccc4oc(C(=O)O)cc4c3)S(=O)(=O)c3ccc(Cl)c([N+](=O)[O-])c3)cc2)cc1
- IC50 [1]: > 20 µM
- Activity (MC-38 [2]): Active
- Activity (MC-38 [3]): Active
- inhibition in vivo at 50 mg/kg (MC-38 [4]): 94.3%
- Activity (MC-38 [5]): Active
- inhibition in vivo at 50 mg/kg (MC-38 [6]): 69.6%
- Activity (Jurkat T [7]): inactive
- Activity (MC-38 [8]): Active
- Ki [9]: 1.34 µM
- Activity (MC-38 [10]): inactive
- Activity (MC-38 [11]): Active
- Activity (Jurkat T [12]): inactive
- Activity (MC-38 [13]): Active

SMILES: O=C(O)c1cc2cc(N(Cc3ccc(OCc4ccccc4)cc3)S(=O)(=O)c3ccc(-c4ccccc4)cc3)ccc2o1
- Ratio IC50 [14]: > 5.5
- IC50 [1]: > 20 µM
- Activity (MC-38 [2]): Active
- Ratio IC50 [15]: > 3.5
- IC50 [16]: 2.55 µM
- Activity (MC-38 [3]): Active
- inhibition in vivo at 50 mg/kg (MC-38 [4]): 94.3%
- Activity (MC-38 [5]): Active
- inhibition in vivo at 50 mg/kg (MC-38 [6]): 65%
- Activity (Jurkat T [7]): inactive
- Activity (MC-38 [8]): Active
- Ki [9]: 0.93 µM
- Activity (MC-38 [10]): inactive
- Activity (MC-38 [11]): Active
- Activity (Jurkat T [12]): inactive
- Ratio IC50 [17]: > 3.5
- Activity (MC-38 [13]): Active

SMILES: O=C(O)c1cc2cc(N(Cc3cccc(-c4ccccc4)c3)S(=O)(=O)c3ccc(-c4ccccc4)cc3)ccc2o1
- Ratio IC50 [14]: > 5.5
- IC50 [1]: > 20 µM
- Ratio IC50 [15]: > 5.5
- IC50 [16]: 3.23 µM
- Ratio IC50 [17]: 1.8

SMILES: CC(=O)C1=C(C)N=c2s/c(=C/c3ccc(OCc4ccc(C(=O)O)cc4)cc3)c(=O)n2C1c1ccc(N(C)C)cc1 (centres undefined)
- IC50 [1]: > 20 µM
- IC50 [16]: 6.1 µM
- Ki [9]: 4.38 µM
- Ratio IC50 [17]: 1.2

SMILES: O=C(O)c1cc2cc(N(Cc3ccc(-c4ccccc4)cc3)S(=O)(=O)c3ccc(-c4cccc(O)c4)cc3)ccc2o1
- Ratio IC50 [14]: > 5.5
- IC50 [1]: > 20 µM
- Ratio IC50 [15]: > 5.5
- IC50 [16]: 3.59 µM
- Ratio IC50 [17]: 1.8
